The record followed here is patent US7563905B2, “Triazole derivatives and method of using the same to treat HIV infections” (Wyeth, priority 2004, dated 2009).

The target in experiment [1] is T1, HIV Reverse transcriptase (RT) 66/p51 (Human immunodeficiency virus type 1 group M subtype B, UniProt P04585).
T1 construct: HIV Reverse transcriptase (RT) 66/p51; purchased Worthington
Nature of the experiment: RNA dependent DNA polymerase (RDDP) activity of HIV RT, polyrA-oligodT12-18 / 33P TTP incorporation filter assay. It counts as biochemical.

Experiment [2] concerns the target T2, HIV reverse transcriptase (Human immunodeficiency virus type 1 group M subtype B, UniProt P04585).
T2 construct: HIV reverse transcriptase has an RNase H domain at the C-terminus of its p66 subunit
The experiment in a line: Inhibition of HIV reverse transcriptase (RNase H fluorescent probe assay), Table I. It counts as biochemical. From the text:
RNase H is an enzyme responsible for the removal of RNA primers from leading and lagging strands during DNA synthesis. It is an important enzyme for the replication of bacterial, viral and human genomes. HIV reverse transcriptase has an RNase H domain at the C-terminus of its p66 subunit. […] The ability of the compounds of the present invention to inhibit RNase H, and more particularly HIV reverse transcriptase, may be determined by any means known in the art.
Preferably, the RNase H/HIV reverse transcriptase modulatory activity of the compounds of the present invention may be determined by the methods described in copending U.S. Provisional Patent Application No. 60/436,125, filed Dec. 19, 2002 and PCT International Publication No. WO/2004/059012, filed Dec. 22, 2003 for ASSAY FOR RNase ACTIVITY of Olson et al., incorporated herein by reference in its entirety. Specifically, the modulatory activity of a triazole derivative of the present invention may be determined by hybridizing a target nucleic acid to a fluorescently labeled oligonucleotide probe complementary to the target nucleic acid and containing a fluorophor at one terminus and a quenching group at the other terminus to obtain a probe-target hybrid, wherein (i) the unhybridized probe adopts a conformation that places the fluorophon and quencher in such proximity that the quencher quenches the fluorescent signal of the fluorophon, and (ii) the formation of the probe-target hybrid causes sufficient separation of the fluorophon and quencher to reduce quenching of the fluorescent signal of the fluorophon. Next, a first and second sample containing the probe-target hybrid are prepared. The probe-target hybrid of the first sample is then contacted with an RNase H enzyme (such as HIV reverse transcriptase) in an amount sufficient to selectively cleave the target nucleic acid and thereby release the intact probe. The probe-target hybrid of the second sample is also contacted with the RNase H enzyme in an amount sufficient to selectively cleave the target nucleic acid and thereby release the intact probe in the presence of a triazole derivative of the present invention. The release of the probe in each sample may then be detected by measuring the […] in the fluorescent signal of the fluorophon as compared to the signal of the probe-target hybrid. A comparison of the rate of the decrease in the fluorescent signal of the fluorophon in the two samples is made to determine whether there is a difference in the rate of the decrease in the two samples. […] This method is also useful to identify triazole derivatives of the present invention, wherein candidate derivatives are screened for their ability to modulate RNase/HIV reverse transcriptase activity.

Structures are written as SMILES.

Regarding `Cc1cn([C@H]2C[C@H](N=[N+]=[N-])[C@@H](CO)O2)c(=O)[nH]c1=O` [AZT], the IC50 in experiment [1] was < 0.2 µM. Regarding `c1ccc(CSc2nnc(-c3ccccn3)n2Cc2ccccc2)cc1` [Example 7, 2-[4-benzyl-5-(benzylthio)-4H-1,2,4-triazol-3-yl]pyridine], the half-inhibitory concentration (IC50) in experiment [2] turned out to be 1.7 µM.

In experiment [2], `Clc1ccc(CSc2nnc(-c3ccco3)n2Cc2ccccc2)cc1` [Example 10, 4-benzyl-3-[(4-chlorobenzyl)thio]-5-(2-furyl)-4H-1,2,4-triazole] yielded an IC50 of 3.8 µM. Same read-out and setting: in the case of `Clc1ccc(CSc2nnc(-c3ccccn3)n2Cc2ccccc2)cc1` [Example 17, 2-[4-benzyl-5-(4-chloro-benzylsulfanyl)-4H-1,2,4-triazol-3-yl]pyridine] it was 23 µM; in that of `c1ccc(Cn2c(SCc3ccncc3)nnc2-c2ccccn2)cc1` [Example 8, 2-[4-benzyl-5-[(pyridine-4-ylmethyl)thio)-4H-1,2,4-triazol-3-yl]pyridine], 2.6 µM; in that of `FC(F)(F)c1ccc(CSc2nnc(-c3ccco3)n2-c2ccccc2)cc1` [Example 12, 3-(2-furyl)-4-phenyl-5-{[4-(trifluoromethyl)benzyl]thio}-4H-1,2,4-triazole], 4.7 µM. The same measure, in the same setting: in the case of `COc1ccc(Cn2c(SCc3ccccc3)nnc2-c2ccco2)cc1` [Example 18, 3-benzylsulfanyl-5-furan-2-yl-4-(4-methoxy-benzyl)-4H-1,2,4-triazole] it was 46 µM; in that of `COc1ccc(CSc2nnc(-c3cccs3)n2Cc2ccccc2)cc1` [Example 13, 4-benzyl-3-[(4-methoxybenzyl)thio]-5-thien-2-yl-4H-1,2,4-triazole], 5.9 µM. Turning to `COc1ccc(Cn2c(SCc3ccc(C(F)(F)F)cc3)nnc2-c2ccco2)cc1` [Example 14, 3-(2-furyl)-4(4-methoxybenzyl)-5-{[4-(trifluoromethyl)benzyl]thio}-4H-1,2,4-triazole], the IC50 in experiment [2] is 6.5 µM. On the same count and under the same terms, in the case of `c1ccc(CSc2nnc(-c3ccco3)n2Cc2ccccc2)cc1` [Example 6, 4-benzyl-3-(benzylthio)-5-(2-furyl)-4H-1,2,4-triazole] it was 1.2 µM; in that of `c1ccc(CSc2nnc(-c3cccs3)n2Cc2ccccc2)cc1` [Example 2, 4-benzyl-3-(benzylthio)-5-thien-2-yl-4H-1,2,4-triazole], < 0.2 µM. Same read-out and setting: in the case of `Clc1ccc(CSc2nnc(-c3ccccc3)n2Cc2ccccc2)cc1` [Example 15, 4-benzyl-3-(4-chloro-benzylsulfanyl)-5-phenyl-4H-1,2,4-triazole] it was 6 µM; in that of `COc1ccc(CSc2nnc(-c3ccccc3)n2Cc2ccccc2)cc1` [Example 4, 4-benzyl-3-[(4-methoxybenzyl)thio]-5-phenyl-4H-1,2,4-triazole], 1 µM; in that of `Clc1ccc(CSc2nnc(-c3cccs3)n2Cc2ccccc2)cc1` [Example 1, 4-benzyl-3-[(4-chlorobenzyl)thio]-5-thien-2-yl-4H-1,2,4-triazole], 1.3 µM.

Regarding `COc1ccc(CSc2nnc(-c3ccccn3)n2Cc2ccccc2)cc1` [Example 16, 2-[4-benzyl-5-(4-methoxy-benzylsulfanyl)-4H-1,2,4-triazol-3-yl]pyridine], the IC50 in experiment [2] was 7 µM. The same measure, in the same setting: in the case of `c1ccc(Cn2c(SCc3ccncc3)nnc2-c2cccs2)cc1` [Example 3, 4-{[(4-benzyl-5-thien-2-yl-4H-1,2,4-triazol-3-yl)thio}methyl}pyridine] it was 0.2 µM; in that of `c1ccc(CSc2nnc(-c3ccccc3)n2Cc2ccccc2)cc1` [Example 5, 4-benzyl-3-(benzylthio)-5-phenyl-4H-1,2,4-triazole], 1 µM; in that of `COc1ccc(CSc2nnc(-c3ccco3)n2Cc2ccccc2)cc1` [Example 9, 4-benzyl-3-(2-furyl)-5-[(4-methoxybenzyl)thio]-4H-1,2,4-triazole], 3.8 µM.
